These are literature values, as cited in US20200214978A1, “Functional chewing gum comprising phytonutrients and adaptogenic herbs” (BrilliantIQ AB, priority 2017, published 2020).

For data set [1] the following is noted: oral administration.
The conditions of data set [2]: supplementation, group of healthy adults.

Consider `C[N+](C)(C)CCOP(=O)([O-])OC[C@H](O)CO` [alpha-GPC, L-Alpha glycerolphosphorylcholine], for which, in data set [1], the beta waves result is recorded as “significant increase” and the delta waves entry is reported as “significant decrease”.

On to Phosphatidylserine, for which the “increase the speed of calculations done in short-term memory” value in data set [2] is 20%.
